# Measured values published in PubChem BioAssay (NCI).
#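 Assay format: 96-well plates, 48-hour exposure. Abbreviation: GI50, concentration required for 50% inhibition of growth. TGI: concentration producing complete growth inhibition.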
# Tests used:
# Assay in all cases: NCI-60 cell line screen, 48 h
# SN12C renal = test system: SN12C renal
# OVCAR-8 ovarian = test system: OVCAR-8 ovarian
# OVCAR-5 ovarian = test system: OVCAR-5 ovarian
# PC-3 prostate = test system: PC-3 prostate
# SK-MEL-5 melanoma = test system: SK-MEL-5 melanoma
# SF-295 CNS = test system: SF-295 CNS
# NCI-H23 lung = test system: NCI-H23 lung
# DU-145 prostate = test system: DU-145 prostate
# SK-MEL-2 melanoma = test system: SK-MEL-2 melanoma
# A549 NSCLC = test system: A549 NSCLC
# SR leukemia = test system: SR leukemia
# ACHN renal = test system: ACHN renal
# HS 578T breast = test system: HS 578T breast
# NCI-H460 lung = test system: NCI-H460 lung
# HOP-62 NSCLC = test system: HOP-62 NSCLC
# NCI/ADR-RES ovarian = test system: NCI/ADR-RES ovarian
# 786-0 renal = test system: 786-0 renal
# RXF 393 renal = test system: RXF 393 renal
# A498 renal = test system: A498 renal
# IGROV1 ovarian = test system: IGROV1 ovarian
# SF-268 CNS = test system: SF-268 CNS
# MDA-MB-435 = test system: MDA-MB-435
# SW-620 colon = test system: SW-620 colon
# MCF7 breast = test system: MCF7 breast
# CCRF-CEM leukemia = test system: CCRF-CEM leukemia
# SK-MEL-28 melanoma = test system: SK-MEL-28 melanoma
# BT-549 breast = test system: BT-549 breast
# U251 CNS = test system: U251 CNS
# MDA-MB-231 breast = test system: MDA-MB-231 breast
# SF-539 CNS = test system: SF-539 CNS
# NCI-H226 lung = test system: NCI-H226 lung
# OVCAR-3 ovarian = test system: OVCAR-3 ovarian
# K-562 leukemia = test system: K-562 leukemia
# LOX IMVI melanoma = test system: LOX IMVI melanoma
# HCT-116 colon = test system: HCT-116 colon
# HT29 colon = test system: HT29 colon
# SK-OV-3 ovarian = test system: SK-OV-3 ovarian
# EKVX NSCLC = test system: EKVX NSCLC
# OVCAR-4 ovarian = test system: OVCAR-4 ovarian
# HOP-92 NSCLC = test system: HOP-92 NSCLC
# MALME-3M melanoma = test system: MALME-3M melanoma
# COLO 205 colon = test system: COLO 205 colon
# HCT-15 colon = test system: HCT-15 colon
# HCC-2998 colon = test system: HCC-2998 colon
# NCI-H522 lung = test system: NCI-H522 lung
# UO-31 renal = test system: UO-31 renal
# SNB-75 CNS = test system: SNB-75 CNS
# RPMI-8226 leukemia = test system: RPMI-8226 leukemia
# TK-10 renal = test system: TK-10 renal
# KM12 colon = test system: KM12 colon
# HL-60(TB) leukemia = test system: HL-60(TB) leukemia
# T-47D breast = test system: T-47D breast
# MOLT-4 leukemia = test system: MOLT-4 leukemia
# SNB-19 CNS = test system: SNB-19 CNS
# UACC-62 melanoma = test system: UACC-62 melanoma
# M14 melanoma = test system: M14 melanoma
# UACC-257 melanoma = test system: UACC-257 melanoma
compound,measurement,setting,value
CC/C=C\C[C@H]1CC=C2C(=O)C=C[C@@H]2CC=CCCCC(=O)O[C@@H](CCCCC)CC=C2C(=O)C=C[C@@H]2CC=CCCCC(=O)O[C@@H](CCCCC)CC=C2C(=O)C=C[C@@H]2CC=CCCCC(=O)O[C@@H](CCCCC)CC=C2C(=O)C=C[C@@H]2CC=CCCCC(=O)O1,GI50,SN12C renal,1990 nM
same,TGI,SN12C renal,6860 nM
same,GI50,OVCAR-8 ovarian,2290 nM
same,TGI,OVCAR-8 ovarian,> 7900 nM
same,GI50,OVCAR-5 ovarian,4020 nM
same,TGI,OVCAR-5 ovarian,> 7900 nM
same,GI50,PC-3 prostate,2380 nM
same,TGI,PC-3 prostate,> 7900 nM
same,GI50,SK-MEL-5 melanoma,1850 nM
same,TGI,SK-MEL-5 melanoma,4500 nM
same,GI50,SF-295 CNS,2020 nM
same,TGI,SF-295 CNS,6320 nM
same,GI50,NCI-H23 lung,2340 nM
same,TGI,NCI-H23 lung,> 7900 nM
same,GI50,DU-145 prostate,2680 nM
same,TGI,DU-145 prostate,> 7900 nM
same,GI50,SK-MEL-2 melanoma,2210 nM
same,TGI,SK-MEL-2 melanoma,5380 nM
same,GI50,A549 NSCLC,3590 nM
same,TGI,A549 NSCLC,> 7900 nM
same,GI50,SR leukemia,1580 nM
same,TGI,SR leukemia,> 7900 nM
same,GI50,ACHN renal,2620 nM
same,TGI,ACHN renal,> 7900 nM
same,GI50,HS 578T breast,2680 nM
same,TGI,HS 578T breast,> 7900 nM
same,GI50,NCI-H460 lung,2450 nM
same,TGI,NCI-H460 lung,> 7900 nM
same,GI50,HOP-62 NSCLC,1710 nM
same,TGI,HOP-62 NSCLC,3860 nM
same,GI50,NCI/ADR-RES ovarian,> 7900 nM
same,TGI,NCI/ADR-RES ovarian,> 7900 nM
same,GI50,786-0 renal,2290 nM
same,TGI,786-0 renal,6510 nM
same,GI50,RXF 393 renal,1370 nM
same,TGI,RXF 393 renal,2870 nM
same,GI50,A498 renal,2250 nM
same,TGI,A498 renal,> 7900 nM
same,GI50,IGROV1 ovarian,2320 nM
same,TGI,IGROV1 ovarian,7810 nM
same,GI50,SF-268 CNS,2620 nM
same,TGI,SF-268 CNS,> 7900 nM
same,GI50,MDA-MB-435,1590 nM
same,TGI,MDA-MB-435,4540 nM
same,GI50,SW-620 colon,2540 nM
same,TGI,SW-620 colon,> 7900 nM
same,GI50,MCF7 breast,1460 nM
same,TGI,MCF7 breast,> 7900 nM
same,GI50,CCRF-CEM leukemia,1650 nM
same,TGI,CCRF-CEM leukemia,> 7900 nM
same,GI50,SK-MEL-28 melanoma,1990 nM
same,TGI,SK-MEL-28 melanoma,6300 nM
same,GI50,BT-549 breast,1780 nM
same,TGI,BT-549 breast,5210 nM
same,GI50,U251 CNS,1450 nM
same,TGI,U251 CNS,3130 nM
same,GI50,MDA-MB-231 breast,1910 nM
same,TGI,MDA-MB-231 breast,4990 nM
same,GI50,SF-539 CNS,2220 nM
same,TGI,SF-539 CNS,> 7900 nM
same,GI50,NCI-H226 lung,2480 nM
same,TGI,NCI-H226 lung,> 7900 nM
same,GI50,OVCAR-3 ovarian,1660 nM
same,TGI,OVCAR-3 ovarian,4010 nM
same,GI50,K-562 leukemia,2500 nM
same,TGI,K-562 leukemia,> 7900 nM
same,GI50,LOX IMVI melanoma,1220 nM
same,TGI,LOX IMVI melanoma,2470 nM
same,GI50,HCT-116 colon,1300 nM
same,TGI,HCT-116 colon,3060 nM
same,GI50,HT29 colon,2860 nM
same,TGI,HT29 colon,6930 nM
same,GI50,SK-OV-3 ovarian,7640 nM
same,TGI,SK-OV-3 ovarian,> 7900 nM
same,GI50,EKVX NSCLC,2410 nM
same,TGI,EKVX NSCLC,> 7900 nM
same,GI50,OVCAR-4 ovarian,2200 nM
same,TGI,OVCAR-4 ovarian,> 7900 nM
same,GI50,HOP-92 NSCLC,1530 nM
same,TGI,HOP-92 NSCLC,4320 nM
same,GI50,MALME-3M melanoma,2770 nM
same,TGI,MALME-3M melanoma,> 7900 nM
same,GI50,COLO 205 colon,1640 nM
same,TGI,COLO 205 colon,3600 nM
same,GI50,HCT-15 colon,2840 nM
same,TGI,HCT-15 colon,> 7900 nM
same,GI50,HCC-2998 colon,1860 nM
same,TGI,HCC-2998 colon,4070 nM
same,GI50,NCI-H522 lung,1760 nM
same,TGI,NCI-H522 lung,4480 nM
same,GI50,UO-31 renal,1410 nM
same,TGI,UO-31 renal,2840 nM
same,GI50,SNB-75 CNS,3800 nM
same,TGI,SNB-75 CNS,> 7900 nM
same,GI50,RPMI-8226 leukemia,1830 nM
same,TGI,RPMI-8226 leukemia,5830 nM
same,GI50,TK-10 renal,3000 nM
same,TGI,TK-10 renal,> 7900 nM
same,GI50,KM12 colon,2510 nM
same,TGI,KM12 colon,> 7900 nM
same,GI50,HL-60(TB) leukemia,2090 nM
same,TGI,HL-60(TB) leukemia,6260 nM
same,GI50,T-47D breast,1810 nM
same,TGI,T-47D breast,5120 nM
same,GI50,MOLT-4 leukemia,2390 nM
same,TGI,MOLT-4 leukemia,> 7900 nM
same,GI50,SNB-19 CNS,2830 nM
same,TGI,SNB-19 CNS,> 7900 nM
same,GI50,UACC-62 melanoma,1520 nM
same,TGI,UACC-62 melanoma,3590 nM
same,GI50,M14 melanoma,2090 nM
same,TGI,M14 melanoma,7460 nM
same,GI50,UACC-257 melanoma,2950 nM
same,TGI,UACC-257 melanoma,> 7900 nM
